According to ChEMBL document CHEMBL1201862, “PubChem BioAssay data set” (2004):
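Values below derive from 48-hour exposures of cells grown in 96-well plates, with endpoints linearly interpolated between the two concentrations bracketing the appropriate inhibition level. At the GI50, growth is halved.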 Calls of active or inactive are those of the source. No stated cut-off is given here; in the data, active = GI50 up to about 1.1 µM and inactive = higher.

Columns and labels:
Assay in all cases: NCI-60 cell line screen, 48 h
[1] = tested on: DU-145
[2] = tested on: SW-620
[3] = tested on: SK-MEL-5
[4] = tested on: NCI/ADR-RES
[5] = tested on: SR
[6] = tested on: SN12C
[7] = tested on: BT-549
[8] = tested on: SNB-75
[9] = tested on: IGROV-1
[10] = tested on: NCI-H460
[11] = tested on: A549
[12] = tested on: Hs-578T
[13] = tested on: HOP-92
[14] = tested on: PC-3
[15] = tested on: SF-539
[16] = tested on: EKVX
[17] = tested on: HOP-62
[18] = tested on: SNB-19
[19] = tested on: M14
[20] = tested on: UO-31

SMILES | GI50 [1] | GI50 [2] | GI50 [3] | GI50 [4] | GI50 [5] | GI50 [6] | GI50 [7] | GI50 [8] | GI50 [9] | GI50 [10] | GI50 [11] | GI50 [12] | GI50 [13] | GI50 [14] | GI50 [15] | GI50 [16] | GI50 [17] | GI50 [18] | GI50 [19] | GI50 [20]
C=C(C)C(=O)O[C@@H]1C[C@@]2(C)O[C@@H]2C[C@H](O)/C(C)=C/[C@H]2OC(=O)C(=C)[C@@H]21 | > 100 µM (inactive) | 18.7 µM (inactive) | > 100 µM (inactive) | 60.7 µM (inactive) | 28.2 µM (inactive) | 36.6 µM (inactive) | 63.1 µM (inactive) | > 100 µM (inactive) | > 100 µM (inactive) | > 100 µM (inactive) | > 100 µM (inactive) | > 100 µM (inactive) | 52.8 µM (inactive) | > 100 µM (inactive) | > 100 µM (inactive) | 62.2 µM (inactive) | > 100 µM (inactive) | > 100 µM (inactive) | 43.1 µM (inactive) | 
O=S(=O)(/N=C(\NO)Nc1ccc(Cl)cc1)C1CC=C(c2ccon2)S1 (centres undefined) | 55.3 µM (inactive) | 5.78 µM (inactive) | 20.4 µM (inactive) | 22.1 µM (inactive) | 2.3 µM (inactive) | 18.2 µM (inactive) | 12.3 µM (inactive) |  | 11.6 µM (inactive) | 16 µM (inactive) | 32.1 µM (inactive) | 14.7 µM (inactive) | 10.3 µM (inactive) | 14.8 µM (inactive) | 1.2 µM (inactive) | 31 µM (inactive) | 40.5 µM (inactive) | 30.1 µM (inactive) | 29 µM (inactive) | 9.55 µM (inactive)
C/C(C=O)=N\Nc1cc(C)c2ccccc2n1 | 15.5 µM (inactive) | 24.7 µM (inactive) | 15.6 µM (inactive) | 15.7 µM (inactive) | 1.7 µM (inactive) | 16.3 µM (inactive) | 12.8 µM (inactive) | 15.1 µM (inactive) | 16.9 µM (inactive) |  | 20.6 µM (inactive) | 17.3 µM (inactive) | 15.1 µM (inactive) | 13.7 µM (inactive) | 11.7 µM (inactive) | 16.9 µM (inactive) | 11.2 µM (inactive) | 19.1 µM (inactive) | 15.7 µM (inactive) | 14.9 µM (inactive)
OCC1CCCCCCCCCCC12SCCCS2 (centres undefined) | > 100 µM (inactive) | > 100 µM (inactive) | > 100 µM (inactive) | > 100 µM (inactive) | > 100 µM (inactive) |  | > 100 µM (inactive) | > 100 µM (inactive) | > 100 µM (inactive) | > 100 µM (inactive) | > 100 µM (inactive) | > 100 µM (inactive) | > 100 µM (inactive) | 71 µM (inactive) |  | > 100 µM (inactive) | > 100 µM (inactive) | > 100 µM (inactive) | > 100 µM (inactive) | > 100 µM (inactive)
Cc1ccc(Nc2nnc3n2S(=O)(=O)c2cc(C)c(Cl)cc2S3)cc1 | 8.09 µM (inactive) | 14.5 µM (inactive) | 3.6 µM (inactive) | 16.1 µM (inactive) | 2.4 µM (inactive) |  | 5.28 µM (inactive) | 6.93 µM (inactive) | 4.4 µM (inactive) | 7.23 µM (inactive) | 8.39 µM (inactive) | 2.89 µM (inactive) | 4.89 µM (inactive) | 4.39 µM (inactive) | 3.77 µM (inactive) | 25.4 µM (inactive) | 6.35 µM (inactive) |  | 7.14 µM (inactive) | 17.3 µM (inactive)
CCOC(=O)C1=CNC(C(=O)OCC)C1c1cccn1-c1ccc(Cl)cc1[N+](=O)[O-] (centres undefined) | 29.5 µM (inactive) | 27.9 µM (inactive) | 16.6 µM (inactive) | 18.5 µM (inactive) | 25.7 µM (inactive) | 18.2 µM (inactive) | 22.8 µM (inactive) | 17.4 µM (inactive) | 9.4 µM (inactive) | 15.4 µM (inactive) | 32.1 µM (inactive) | 15.8 µM (inactive) | 17.6 µM (inactive) | 20.7 µM (inactive) | 16.6 µM (inactive) | 17.9 µM (inactive) | 10 µM (inactive) |  | 15.3 µM (inactive) | 22.9 µM (inactive)
CS(=O)(=O)N1CC(CI)c2ccc(O)cc21 (centres undefined) | 3.05 µM (inactive) | 2.18 µM (inactive) | 1.43 µM (inactive) | 2.75 µM (inactive) | 1.4 µM (inactive) | 3.44 µM (inactive) | 3.68 µM (inactive) | 1.79 µM (inactive) | 3.98 µM (inactive) | 2.35 µM (inactive) | 3.56 µM (inactive) | 3.41 µM (inactive) | 2.18 µM (inactive) | 2.6 µM (inactive) | 2.99 µM (inactive) | 3.74 µM (inactive) | 3.02 µM (inactive) |  |  | 3.35 µM (inactive)
COc1ccc2c(c1)-c1c(c3cc(OC)ccc3n1CCN1CCOCC1)CC2 | 37.8 µM (inactive) | 33.7 µM (inactive) | 25.4 µM (inactive) | 20.7 µM (inactive) | 3.94 µM (inactive) | 62.2 µM (inactive) | 28.4 µM (inactive) | 19.8 µM (inactive) | 18.1 µM (inactive) | 22.8 µM (inactive) | 23.9 µM (inactive) | 16.6 µM (inactive) | 24.4 µM (inactive) | 24.2 µM (inactive) | 28.4 µM (inactive) |  | 42.6 µM (inactive) |  | 15.8 µM (inactive) | 24.5 µM (inactive)
CCOC(=O)/C(C#N)=C(/NS(=O)(=O)c1cc(C)c(Cl)cc1[S-])[n+]1ccc(N(C)C)cc1 | > 100 µM (inactive) |  | > 100 µM (inactive) | > 100 µM (inactive) | > 100 µM (inactive) | > 100 µM (inactive) | > 100 µM (inactive) |  | > 100 µM (inactive) | > 100 µM (inactive) | > 100 µM (inactive) | > 100 µM (inactive) | 27.4 µM (inactive) | > 100 µM (inactive) | > 100 µM (inactive) | > 100 µM (inactive) | > 100 µM (inactive) | > 100 µM (inactive) | > 100 µM (inactive) | > 100 µM (inactive)
NC(=O)NC(=O)c1cccc(NC(=O)CBr)c1 | < 0.022 µM (active) | < 0.01 µM (active) | < 0.0119 µM (active) | < 0.0171 µM (active) | < 0.01 µM (active) | < 0.0206 µM (active) | < 0.02 µM (active) |  | 0.0266 µM (active) | < 0.0509 µM (active) | 0.912 µM (active) | < 0.0206 µM (active) | < 0.0216 µM (active) | < 0.0182 µM (active) | < 0.0362 µM (active) | 0.766 µM (active) | 0.0577 µM (active) | 0.515 µM (active) | 0.198 µM (active) | 0.209 µM (active)
Cc1csc2nc(-c3cc([N+](=O)[O-])c(Cl)cc3Cl)c(/C=N/N=C(N)N)n12 | 16.7 µM (inactive) | 17.2 µM (inactive) | 16.1 µM (inactive) | 15.3 µM (inactive) | 0.0678 µM (active) | 16.2 µM (inactive) | 14.6 µM (inactive) |  | 16.4 µM (inactive) | 20.2 µM (inactive) | 19 µM (inactive) | 15.4 µM (inactive) | 14.4 µM (inactive) | 16.4 µM (inactive) | 18.7 µM (inactive) | 19.7 µM (inactive) | 16.3 µM (inactive) | 19.8 µM (inactive) | 17.1 µM (inactive) | 16 µM (inactive)
